Consider four compounds from patent US9987364B2, “Water-swellable polymers” (Ferring B.V., priority 2002, dated 2018).

For data set [1] the following is noted: cited from earlier work.
Data set [2] is described as follows: In vitro drug release from pessaries, USP Method XXIII Apparatus 2. Type of data set: physicochemical. To be noted: 37° C., 50 rpm. The procedure:
The drug loaded polymer were analysed for in vitro drug release following USP Method XXIII, Apparatus 2 at 37° C., with 50 rpm paddle speed. Drug release was analysed by ultraviolet spectroscopy or high pressure liquid chromatography (HPLC) as appropriate.
Rate of drug release k values of each dissolution profile was determined by calculating the slope of graph % drug release versus square root time. All the linear relationship between % drug release and square root time has R^2 correlation value […].

Where [3] appears, read: from A03003 (CLP) cross-linked polymer pessaries.
Setting [4] is: from A03030 (LP) linear polymer pessaries.
Setting [5] is: from A03032 (LP) linear polymer pessaries.

Each structure is given as a SMILES string.

As for `CCCCC(C)(O)C/C=C/[C@H]1[C@H](O)CC(=O)[C@@H]1CCCCCCC(=O)OC` (mixture of isomers) [MIS, misoprostol], the “Drug solubility (in water), in words” value in data set [1] is on record as “Insoluble”.
With `CC(C)(C)NCC(O)c1cc(O)cc(O)c1` (centres unmarked) [TBS, Terbutaline sulphate], the “Rate of drug release, k” value in data set [2] (setting [3]) is given as 13.628 minute^−0.5; in data set [2] (setting [4]) it was 13.262 minute^−0.5; in data set [2] (setting [5]), 11.954 minute^−0.5. The “Drug solubility (in water), in words” value in data set [1] is reported as “Soluble”.
Regarding `CC(=O)[C@H]1CC[C@H]2[C@@H]3CCC4=CC(=O)CC[C@]4(C)[C@H]3CC[C@]12C` [PRO, Progesterone], the “Rate of drug release, k” value in data set [2] (setting [3]) amounted to 2.414 minute^−0.5; in data set [2] (from A03033 (LP) linear polymer pessaries), 1.256 minute^−0.5. Also, the “Drug solubility (in water), in words” value in data set [1] is given as “Insoluble”.
Regarding `CC[C@H](C)[C@@H]1NC(=O)[C@H](Cc2ccc(O)cc2)NC(=O)[C@@H](N)CSSC[C@@H](C(=O)N2CCC[C@H]2C(=O)N[C@@H](CC(C)C)C(=O)NCC(N)=O)NC(=O)[C@H](CC(N)=O)NC(=O)[C@H](CCC(N)=O)NC1=O` [OXY, Oxytocin], the “Rate of drug release, k” value in data set [2] (setting [3]) is 6.749 minute^−0.5; in data set [2] (setting [4]), 7.875 minute^−0.5; in data set [2] (setting [5]), 7.85 minute^−0.5.
